Structures are written as SMILES. Several values for one entry are separate records, joined by “and”; a condition that tells them apart may be missing. Identical values can stand only once. Inconclusive results and toxic doses are left out.

In the assay the test system is B6C3F1 mice, ip Sarcoma M5076, median survival T/C. Briefly: NCI In Vivo Anticancer Drug Screen. Data for tumor model Sarcoma M5076 (intraperitoneal) in B6C3F1 mice. The following applies: endpoint: median survival time, higher = longer survival. An outline of the steps:
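Tumour cells were transplanted into mice, compound or vehicle was given, survival of both groups was followed, and the treated figure was expressed over the control figure.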

The mark [1] stands for this setting: dose: 75.0 mg/kg/injection, schedule: Q04DX004 (ip), vehicle: saline with Tween-80.
The mark [2] stands for this setting: dose: 150.0 mg/kg/injection, schedule: Q04DX004 (ip), vehicle: saline with Tween-80.
[3] abbreviates: dose: 25.0 mg/kg/injection, schedule: Q04DX004 (ip), vehicle: Klucel (hydroxypropylcellulose) (HPC).
Where [4] appears, read: dose: 50.0 mg/kg/injection, schedule: Q04DX004 (ip), vehicle: Klucel (hydroxypropylcellulose) (HPC).
The mark [5] stands for this setting: dose: 100.0 mg/kg/injection, schedule: Q04DX004 (ip), vehicle: Klucel (hydroxypropylcellulose) (HPC).
The mark [6] stands for this setting: dose: 200.0 mg/kg/injection, schedule: Q04DX004 (ip), vehicle: Klucel (hydroxypropylcellulose) (HPC).
[7] abbreviates: dose: 400.0 mg/kg/injection, schedule: Q04DX004 (ip), vehicle: Klucel (hydroxypropylcellulose) (HPC).
Setting [8] is: dose: 50.0 mg/kg/injection, schedule: Q04DX004 (ip), vehicle: saline with Tween-80.
Setting [9] is: dose: 100.0 mg/kg/injection, schedule: Q04DX004 (ip), vehicle: saline with Tween-80.
[10] abbreviates: dose: 200.0 mg/kg/injection, schedule: Q04DX004 (ip), vehicle: saline with Tween-80.
Setting [11] is: dose: 400.0 mg/kg/injection, schedule: Q04DX004 (ip), vehicle: saline with Tween-80.

Take `COC(C(=O)C(O)C(C)O)C1CC2C=C3C=C(OC4CC(OC5CC(O)C(OC)C(C)O5)C(OC(C)=O)C(C)O4)C(C)C(=O)C3=C(O)C2=C(O)C1OC1CC(OC2CC(OC3CC(C)(O)C(O)C(C)O3)C(O)C(C)O2)C(O)C(C)O1` (stereo unspecified): the T/C by setting is: (dose: 1.0 mg/kg/injection, schedule: Q04DX004 (ip), vehicle: saline with Tween-80) 104 % of control; (dose: 2.0 mg/kg/injection, schedule: Q04DX004 (ip), vehicle: saline with Tween-80) 112 % of control; (dose: 4.0 mg/kg/injection, schedule: Q04DX004 (ip), vehicle: saline with Tween-80) 107 % of control and 112 % of control; (dose: 8.0 mg/kg/injection, schedule: Q04DX004 (ip), vehicle: saline with Tween-80) 104 % of control and 108 % of control; (dose: 16.0 mg/kg/injection, schedule: Q04DX004 (ip), vehicle: saline with Tween-80) 107 % of control and 111 % of control; (dose: 32.0 mg/kg/injection, schedule: Q04DX004 (ip), vehicle: saline with Tween-80) 117 % of control. Further, the T/C (dose: 64.0 mg/kg/injection, schedule: Q04DX004 (ip), vehicle: saline with Tween-80) is 115 % of control.
With `CC(C)NC(=O)OCc1c(COC(=O)NC(C)C)c(-c2ccc(Cl)c(Cl)c2)n2c1CCC2`, the T/C was 161 % of control under setting [1]; 188 % of control (dose: 108.0 mg/kg/injection, schedule: Q04DX004 (ip), vehicle: saline with Tween-80); 186 % of control under setting [2]; 114 % of control (dose: 180.0 mg/kg/injection, schedule: Q04DX004 (ip), vehicle: saline with Tween-80); 152 % of control (dose: 600.0 mg/kg/injection, schedule: Q04DX004 (ip), vehicle: saline with Tween-80).
As for `NC(C(=O)O)/C1=C/CCCCCC1` (stereo unspecified), the T/C is, setting by setting: under setting [3], 100 % of control; under setting [4], 98 % of control; under setting [5], 100 % of control; under setting [6], 111 % of control; under setting [7], 103 % of control.
In the case of `Cc1nnc2nc(N)[nH]n2c1=O`, the T/C (dose: 25.0 mg/kg/injection, schedule: Q04DX004 (ip), vehicle: water) is 97 % of control; the T/C (dose: 50.0 mg/kg/injection, schedule: Q04DX004 (ip), vehicle: water) was 104 % of control; the T/C (dose: 100.0 mg/kg/injection, schedule: Q04DX004 (ip), vehicle: water) was 96 % of control.
For the compound `O=NN(CCCl)C(=O)NCCCl`, the T/C was 116 % of control (dose: 1.5 mg/kg/injection, schedule: Q04DX004 (ip), vehicle: saline + alcohol); 163 % of control and 164 % of control (dose: 6.0 mg/kg/injection, schedule: Q04DX004 (ip), vehicle: saline + alcohol); 224 % of control and 292 % of control (dose: 12.0 mg/kg/injection, schedule: Q04DX004 (ip), vehicle: saline + alcohol); 248 % of control and 292 % of control (dose: 24.0 mg/kg/injection, schedule: Q04DX004 (ip), vehicle: saline + alcohol); 244 % of control (dose: 48.0 mg/kg/injection, schedule: Q04DX004 (ip), vehicle: saline + alcohol).
Take `Cc1c(O)c2ccccc2c2c1sc(NCCCN(CCO)CCO)[n+]2C`: the T/C (dose: 7.5 mg/kg/injection, schedule: Q04DX004 (ip), vehicle: saline) was 93 % of control; the T/C (dose: 15.0 mg/kg/injection, schedule: Q04DX004 (ip), vehicle: saline) was 98 % of control; the T/C (dose: 30.0 mg/kg/injection, schedule: Q04DX004 (ip), vehicle: saline) is 94 % of control.
With `CNNCc1ccc(C(=O)NC(C)C)cc1`, the T/C was 119 % of control (dose: 22.0 mg/kg/injection, schedule: Q04DX004 (ip), vehicle: saline); 152 % of control (dose: 88.0 mg/kg/injection, schedule: Q04DX004 (ip), vehicle: saline); 152 % of control (dose: 352.0 mg/kg/injection, schedule: Q04DX004 (ip), vehicle: saline).
Regarding `S=C(NCNC(=S)c1ccncc1)c1ccncc1`, the T/C reads like this: (dose: 25.0 mg/kg/injection, schedule: Q04DX004 (ip), vehicle: saline with Tween-80) 96 % of control; under setting [8], 99 % of control; under setting [9], 92 % of control; under setting [10], 102 % of control; under setting [11], 107 % of control.
On to `CC1CCC(NC(=O)N(CCCl)N=O)CC1` (stereo unspecified), for which the T/C (dose: 3.0 mg/kg/injection, schedule: Q01DX004 (ip), vehicle: Klucel (hydroxypropylcellulose) (HPC)) was 108 % of control; the T/C (dose: 6.0 mg/kg/injection, schedule: Q01DX004 (ip), vehicle: Klucel (hydroxypropylcellulose) (HPC)) was 104 % of control; the T/C (dose: 12.0 mg/kg/injection, schedule: Q01DX004 (ip), vehicle: Klucel (hydroxypropylcellulose) (HPC)) was 108 % of control; the T/C (dose: 48.0 mg/kg/injection, schedule: Q04DX004 (ip), vehicle: Klucel (hydroxypropylcellulose) (HPC)) was 254 % of control.
Regarding `CN(C)C(=O)SC1=C(c2c(Cl)cccc2Cl)C(=O)c2ccccc21`, the T/C (dose: 37.5 mg/kg/injection, schedule: Q04DX004 (ip), vehicle: Klucel (hydroxypropylcellulose) (HPC)) is 97 % of control; the T/C (dose: 75.0 mg/kg/injection, schedule: Q04DX004 (ip), vehicle: Klucel (hydroxypropylcellulose) (HPC)) is 113 % of control; the T/C (dose: 150.0 mg/kg/injection, schedule: Q04DX004 (ip), vehicle: Klucel (hydroxypropylcellulose) (HPC)) is 104 % of control; the T/C (dose: 300.0 mg/kg/injection, schedule: Q04DX004 (ip), vehicle: Klucel (hydroxypropylcellulose) (HPC)) was 95 % of control; the T/C (dose: 1200.0 mg/kg/injection, schedule: Q04DX004 (ip), vehicle: Klucel (hydroxypropylcellulose) (HPC)) is 95 % of control.
Take `C1CCC(NC2CCCCC2)CC1`: the T/C was 103 % of control (dose: 75.0 mg/kg/injection, schedule: Q04DX004 (ip), vehicle: saline); 103 % of control (dose: 150.0 mg/kg/injection, schedule: Q04DX004 (ip), vehicle: saline); 100 % of control (dose: 300.0 mg/kg/injection, schedule: Q04DX004 (ip), vehicle: saline).
For the compound `CN(C)c1ccc2c(SCC(=O)OCC(=O)[C@@]3(O)CC[C@H]4[C@@H]5CCC6=CC(=O)C=C[C@]6(C)[C@H]5C(=O)C[C@@]43C)c3ccc(N(C)C)cc3nc2c1`, the T/C is 101 % of control under setting [3]; 103 % of control under setting [4]; 97 % of control under setting [5]; 90 % of control under setting [6]; 94 % of control under setting [7].
For the compound `Nc1nc2c(ncn2C2CC3[O][Sn]([c]4ccccc4)([c]4ccccc4)[O]CC3O2)c(=O)[nH]1` (stereo unspecified), the T/C by setting is: (dose: 25.0 mg/kg/injection, schedule: Q04DX004 (ip), vehicle: distilled water + Tween-80) 99 % of control; (dose: 50.0 mg/kg/injection, schedule: Q04DX004 (ip), vehicle: distilled water + Tween-80) 90 % of control; (dose: 100.0 mg/kg/injection, schedule: Q04DX004 (ip), vehicle: distilled water + Tween-80) 88 % of control; (dose: 200.0 mg/kg/injection, schedule: Q04DX004 (ip), vehicle: distilled water + Tween-80) 92 % of control.
Turning to `ClC1(Cl)Cc2ccccc21`, the T/C reads like this: under setting [8], 103 % of control; under setting [9], 114 % of control; under setting [10], 92 % of control; under setting [11], 87 % of control.
On to `Cc1noc2nc(-c3ccccc3)cc(N3CCN(C)CC3)c12`, for which the T/C is, setting by setting: (dose: 25.0 mg/kg/injection, schedule: Q04DX004 (ip), vehicle: other) 95 % of control; (dose: 50.0 mg/kg/injection, schedule: Q04DX004 (ip), vehicle: other) 105 % of control; (dose: 100.0 mg/kg/injection, schedule: Q04DX004 (ip), vehicle: other) 99 % of control; (dose: 200.0 mg/kg/injection, schedule: Q04DX004 (ip), vehicle: other) 97 % of control.
Consider `Cc1ccc(C2C(C#N)C(=O)NC(=O)C2C#N)cc1` (stereo unspecified), for which the T/C by setting is: under setting [4], 99 % of control; under setting [5], 99 % of control; under setting [6], 86 % of control.
`CCOP(=S)(OCC)OC(=O)C(C)SSC` (stereo unspecified) (tested in a mixture with another compound): the T/C reads like this: (dose: 37.5 mg/kg/injection, schedule: Q04DX004 (ip), vehicle: saline with Tween-80) 96 % of control; under setting [1], 99 % of control; under setting [2], 88 % of control.

The record behind these values is PubChem BioAssay AID292 (DTP/NCI, 2004).
